We go through 13 compounds from the RepoRT retention time repository.

This data set is described as follows: RP, Waters ACQUITY UPLC BEH C18, 50 × 2.1 mm, 1.7 µm, 55 °C, 0.4 mL/min, estimated dead time 0.28 min; A: 40% water + 60% acetonitrile + 0.1% acetic acid + 10 mM ammonium acetate; B: 10% acetonitrile + 90% isopropanol + 0.1% acetic acid + 10 mM ammonium acetate; gradient (min/%B) 0/40 2/43 2.1/50 12/54 12.1/70 18/99 19/99. The note with it: stereoisomer not certain.
Regarding `CC12CCC3C(CCC4CC(OS(=O)(=O)O)CCC43C)C1CCC2=O` (stereo not drawn), the LC retention time was 1 min.
To `CCCCCCCCCCCCC(O)C(=O)O` (stereo not drawn) [2-hydroxymyristic acid] belongs 0.92 min; to `CCCCCCCCCCCCCCCC(=O)OCC(O)COP(=O)([O-])OCC[N+](C)(C)C` (stereo not drawn) [LPC(16:0/0:0)], 1.35 min; to `CCCCCC=CCC=CCCCCCCCC(=O)OC(COC(=O)CCCCCCCCCCCCCCC)COP(=O)([O-])OCC[N+](C)(C)C` (stereo not drawn) [PC(16:0/18:2)], 7 min.
The figure for `CCCCCC=CCC=CCC=CCC=CCCCC(=O)OC(COCCCCCCCCCCCCCCCC)COP(=O)([O-])OCC[N+](C)(C)C` (stereo not drawn) [PC(O-16:0/20:4)] is 8 min.
To `CCCCCCCCC=CCCCCCCCC(=O)OC(COC(=O)CCCCCCCCCCCCCCC)COP(=O)(O)OC1C(O)C(O)C(O)C(O)C1O` (stereo not drawn) [PI(16:0/18:1)] belongs 6 min.
In the case of `CCCCCC=CCC=CCC=CCC=CCCCC(=O)O` [arachidonic acid], the LC retention time is 2 min.
To `CC(CCC(=O)O)C1CCC2C3C(O)CC4CC(O)CCC4(C)C3CC(O)C12C` (stereo not drawn) [cholic acid] belongs 1 min; to `CCCCCC/C=C\CCCC(=O)O` [cis-5-dodecenoic acid], 1 min.
Regarding `CCCCCCCC/C=C\CCCCCCCCCCCC(=O)O` [cis-13-docosenoic acid], the LC retention time was 4 min.
For `CCCCCCCCCCCC(=O)O` [lauric acid], the LC retention time is 1 min.
To `CCCCC/C=C\C/C=C\CCCCCCCC(=O)O` [linoleic acid] belongs 2 min; to `C=CCCCCCCCCC(=O)O` [undecylenic acid], 1 min.
